The values that follow come from ChEMBL document CHEMBL1201862, “PubChem BioAssay data set” (2004).

Assay [1] is described as follows: Counterscreen for inhibitors of Trypanosoma brucei methionyl tRNA synthetase (MetRS): Luminescence-based cell-based high throughput dose response assay to identify compounds that are cytotoxic to Jurkat human T lymphocyte cells. Format: functional.
Assay [2] addresses T1, Methionyl-tRNA synthetase, putative (Trypanosoma brucei brucei, UniProt Q38C91).
T1 sequence (Q38C91 whole entry): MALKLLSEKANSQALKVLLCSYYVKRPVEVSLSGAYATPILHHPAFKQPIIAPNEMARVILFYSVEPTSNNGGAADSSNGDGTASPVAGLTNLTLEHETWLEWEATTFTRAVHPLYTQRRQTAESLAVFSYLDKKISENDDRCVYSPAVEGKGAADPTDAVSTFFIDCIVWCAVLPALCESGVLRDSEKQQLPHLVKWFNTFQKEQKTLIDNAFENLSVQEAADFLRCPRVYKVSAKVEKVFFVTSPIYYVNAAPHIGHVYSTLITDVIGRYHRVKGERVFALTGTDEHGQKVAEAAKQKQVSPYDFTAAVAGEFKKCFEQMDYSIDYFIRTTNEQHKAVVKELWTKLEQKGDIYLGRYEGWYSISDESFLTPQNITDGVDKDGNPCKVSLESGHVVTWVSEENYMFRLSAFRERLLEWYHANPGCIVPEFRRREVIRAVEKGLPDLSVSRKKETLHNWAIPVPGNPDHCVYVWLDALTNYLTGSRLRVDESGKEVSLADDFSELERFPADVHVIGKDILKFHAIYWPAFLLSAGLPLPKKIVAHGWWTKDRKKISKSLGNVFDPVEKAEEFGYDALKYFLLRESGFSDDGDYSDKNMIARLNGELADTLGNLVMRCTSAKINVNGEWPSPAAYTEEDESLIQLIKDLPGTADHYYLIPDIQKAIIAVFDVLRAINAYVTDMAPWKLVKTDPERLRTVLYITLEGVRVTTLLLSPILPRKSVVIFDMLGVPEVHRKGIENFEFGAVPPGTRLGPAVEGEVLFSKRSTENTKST
The assay is classed as functional, Trypanosoma brucei brucei strain 927/4 GUTat10.1.

Assay [3] can be described thus: Late stage counterscreen for inhibitors of Trypanosoma brucei methionyl tRNA synthetase (MetRS): Luminescence-based cell-based high throughput dose response assay to identify compounds that are cytotoxic to Jurkat human T lymphocyte cells. The assay is classed as functional. In general terms: The purpose of a counterscreen is to sort out artefacts and off-target activity.

In assay [4] the target is T1, Methionyl-tRNA synthetase, putative. Format: functional, Trypanosoma brucei brucei strain 927/4 GUTat10.1. This is another data set of the same source.
A further assay has as its target fMet-Leu-Phe receptor (Homo sapiens, UniProt P21462). Nature of the assay: FPR ligands, dose response (AID 519). Format: functional.
The target in the next assay is Transthyretin (Homo sapiens, UniProt P02766). Nature of the assay: Luminescence-based cell-based high throughput dose response assay to identify activators of Transthyretin (TTR) transcription. Format: functional.
Assay [5] is described as follows: cells. Format: functional, cell-based.
Assay [6] has as its target T2, Oxysterols receptor LXR-beta (Homo sapiens, UniProt P55055).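 Further: agonist activity at LXR measured by a cell-based luminescence readout across a dose range, run as a counterscreen for daf-12 agonists; HEK293 cells with Gal4-LXR fusion and GAL4-driven luciferase reporter; potency for activation of Gal4-LXR reporter so compounds are agonists.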
T2 sequence (P55055 whole entry): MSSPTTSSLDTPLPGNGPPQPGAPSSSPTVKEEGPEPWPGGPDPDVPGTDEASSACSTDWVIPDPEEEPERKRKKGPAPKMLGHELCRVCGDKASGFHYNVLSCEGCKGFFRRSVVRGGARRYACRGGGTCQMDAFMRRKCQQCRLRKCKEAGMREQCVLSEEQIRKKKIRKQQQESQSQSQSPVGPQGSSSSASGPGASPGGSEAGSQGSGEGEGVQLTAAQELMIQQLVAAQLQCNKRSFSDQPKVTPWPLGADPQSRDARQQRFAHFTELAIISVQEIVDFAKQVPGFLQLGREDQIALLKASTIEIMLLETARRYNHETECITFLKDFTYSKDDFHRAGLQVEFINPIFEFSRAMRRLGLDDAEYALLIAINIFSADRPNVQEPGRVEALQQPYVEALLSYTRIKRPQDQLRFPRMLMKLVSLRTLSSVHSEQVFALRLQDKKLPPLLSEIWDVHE
The assay is classed as functional, cell-based.

Assay [7] can be described thus: cells. Format: functional, cell-based. This is another data set of the same source.
The target of assay [8] is T3, Microphthalmia-associated transcription factor (Homo sapiens, UniProt O75030).
T3 sequence (O75030 whole entry): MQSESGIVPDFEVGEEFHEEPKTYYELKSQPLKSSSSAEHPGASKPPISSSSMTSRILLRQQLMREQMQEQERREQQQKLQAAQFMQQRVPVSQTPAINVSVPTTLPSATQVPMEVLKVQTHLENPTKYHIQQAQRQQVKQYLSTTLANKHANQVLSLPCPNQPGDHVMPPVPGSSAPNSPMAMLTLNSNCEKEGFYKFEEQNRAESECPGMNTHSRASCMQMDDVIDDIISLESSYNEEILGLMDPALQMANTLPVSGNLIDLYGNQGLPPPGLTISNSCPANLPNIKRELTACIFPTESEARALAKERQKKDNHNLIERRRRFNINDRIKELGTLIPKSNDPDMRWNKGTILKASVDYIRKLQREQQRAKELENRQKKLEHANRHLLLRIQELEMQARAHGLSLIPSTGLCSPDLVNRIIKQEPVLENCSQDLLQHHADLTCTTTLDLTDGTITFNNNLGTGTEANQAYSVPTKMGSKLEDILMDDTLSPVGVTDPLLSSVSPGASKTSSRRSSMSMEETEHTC
Nature of the assay: TRPM1 promoter luciferase signal decrease, dose response, MITF inhibitor project, cell-based, SK-MEL-5, cherry-picked, set 3 (AID 493073).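 Further: SK-MEL-5 melanoma cells with luciferase driven by the MITF target TRPM1 promoter.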 The assay is classed as functional.

A short description of assay [9]: LGR2 antagonists, dose response, cell-based, HEK293, CRE-luciferase reporter, cherry pick, set 2 (AID 743343).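 Further: transfected cells were stimulated with diluted bursicon conditioned medium after compound addition.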 The assay is classed as functional. (In a reporter assay the amount or activity of a reporter protein is the signal.)
Assay [10] can be described thus: microbe, parasite or virus in culture. Conditions: Mycobacterium tuberculosis. Format: functional.
Assay [11] can be described thus: MC4R antagonists, dose response, counter-screen for LGR2 antagonist project, cell-based, plate reader, cherry pick (AID 743444).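 Further: transfected HEK 293 cells stimulated with alpha-MSH peptide; potency of inhibitors of the alpha-MSH evoked signal.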 The assay is classed as functional.
The nature of assay [12]: A549 cell cytotoxicity, dose response, cytotoxicity control, plate reader, cherry-pick, antagonist series (AID 743412). Format: functional, cell-based.
Assay [13] can be described thus: HepG2 cell cytotoxicity, dose response, cytotoxicity control, plate reader, cherry-pick, antagonist series (AID 743416). Format: functional, cell-based.
Assay [14] is described as follows: HEK293 cell cytotoxicity, dose response, cytotoxicity control, plate reader, cherry-picked samples (AID 743446). The assay is classed as functional, cell-based.
Another assay deals with T4, Streptokinase A (Streptococcus pyogenes serotype M1, UniProt P10520).
T4 sequence (P10520 whole entry): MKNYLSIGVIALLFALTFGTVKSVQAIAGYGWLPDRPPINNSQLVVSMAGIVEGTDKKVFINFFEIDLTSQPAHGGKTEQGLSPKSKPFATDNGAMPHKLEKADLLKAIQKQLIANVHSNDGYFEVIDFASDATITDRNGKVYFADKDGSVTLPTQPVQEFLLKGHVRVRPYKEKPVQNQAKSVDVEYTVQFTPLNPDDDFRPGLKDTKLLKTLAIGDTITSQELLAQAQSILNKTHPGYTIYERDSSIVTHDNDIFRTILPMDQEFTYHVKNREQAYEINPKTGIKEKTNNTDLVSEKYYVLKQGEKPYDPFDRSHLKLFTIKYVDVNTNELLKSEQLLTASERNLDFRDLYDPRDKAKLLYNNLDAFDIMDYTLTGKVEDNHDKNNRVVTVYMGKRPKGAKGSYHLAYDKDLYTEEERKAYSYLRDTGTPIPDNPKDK
Nature of the assay: S. pyogenes streptokinase expression inhibitors, potency, dose response, plasminogen activation absorbance, OD405 (AID 1914).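 Further: secreted streptokinase activity via plasminogen activation per viability signal from cell pellet.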 Format: functional, Streptococcus pyogenes M1 GAS.

The subject of assay [15] is Streptococcus sp. 'group A'. Nature of the assay: growth inhibition of control SK(-) GAS strain, dose response, counter-screen for streptokinase expression inhibitor project, luminescence, kanamycin, BacTiterGlo, confirmation (AID 1900). Format: functional, organism-based.
Assay [16] addresses Disintegrin and metalloproteinase domain-containing protein 17 (Homo sapiens, UniProt P78536). Nature of the assay: ADAM17 protease inhibitors, dose response, counter-screen for ADAM10 exosite inhibitor project, biochemical, quenched FRET substrate (AID 743253).
A further assay has as its system Streptococcus. Nature of the assay: Group A Streptococcus viability loss, dose response, counter-screen for streptokinase expression inhibitor project, luminescence, BacTiterGlo (AID 1915).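 Further: potency for reduction of bacterial viability or growth.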 Format: functional, organism-based.

Activity calls are given as the source filed them.

Sequence of Disintegrin and metalloproteinase domain-containing protein 17 (P78536 whole entry, the tested form may be a part): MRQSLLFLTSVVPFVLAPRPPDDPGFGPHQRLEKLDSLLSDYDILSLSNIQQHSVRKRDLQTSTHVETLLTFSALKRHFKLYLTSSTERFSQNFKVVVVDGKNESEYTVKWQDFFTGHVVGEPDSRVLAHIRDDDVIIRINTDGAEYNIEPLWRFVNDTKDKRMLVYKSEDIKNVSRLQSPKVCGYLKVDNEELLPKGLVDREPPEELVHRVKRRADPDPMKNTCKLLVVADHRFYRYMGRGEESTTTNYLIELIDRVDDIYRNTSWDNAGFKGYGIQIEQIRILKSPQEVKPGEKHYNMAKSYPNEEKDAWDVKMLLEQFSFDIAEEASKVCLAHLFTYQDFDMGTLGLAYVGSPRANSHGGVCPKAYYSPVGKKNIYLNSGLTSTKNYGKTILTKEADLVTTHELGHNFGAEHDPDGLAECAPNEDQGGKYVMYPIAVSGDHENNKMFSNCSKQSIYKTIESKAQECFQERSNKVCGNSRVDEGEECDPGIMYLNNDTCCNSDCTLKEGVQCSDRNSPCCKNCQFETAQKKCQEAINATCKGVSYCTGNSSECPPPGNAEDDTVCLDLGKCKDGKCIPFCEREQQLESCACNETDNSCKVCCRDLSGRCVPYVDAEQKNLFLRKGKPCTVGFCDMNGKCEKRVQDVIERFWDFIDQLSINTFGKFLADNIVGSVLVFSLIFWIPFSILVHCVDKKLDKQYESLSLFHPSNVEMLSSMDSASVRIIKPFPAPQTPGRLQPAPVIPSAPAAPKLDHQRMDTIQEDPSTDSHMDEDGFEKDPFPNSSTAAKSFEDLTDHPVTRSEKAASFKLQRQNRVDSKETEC
Sequence of fMet-Leu-Phe receptor (P21462 whole entry): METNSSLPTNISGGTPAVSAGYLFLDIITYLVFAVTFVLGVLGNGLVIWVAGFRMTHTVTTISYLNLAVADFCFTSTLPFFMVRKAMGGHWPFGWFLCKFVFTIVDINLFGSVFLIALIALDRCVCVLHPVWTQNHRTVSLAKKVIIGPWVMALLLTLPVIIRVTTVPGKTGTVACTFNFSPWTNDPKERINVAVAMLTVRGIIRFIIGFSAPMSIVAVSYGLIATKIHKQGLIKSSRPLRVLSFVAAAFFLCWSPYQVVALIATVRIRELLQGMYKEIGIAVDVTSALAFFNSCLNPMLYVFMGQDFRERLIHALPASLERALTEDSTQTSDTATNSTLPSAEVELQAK

Take `Cc1nc2ccc(Br)cc2c(O)c1CN1CCCCCC1`: the IC50 was 83.3 µM (inactive) in [1], 4.16 µM (active) in assay [2], > 83.3 µM (inactive) in [3] and 6.91 µM (active) in assay [4].

As for `Cc1ccc(Nc2nc(C3CC3)cs2)cc1`, the Ki at fMet-Leu-Phe receptor is 43.1 µM (inactive).

As to `COc1ccc(-c2noc(-c3cccs3)n2)cc1OC`, the EC50 on Transthyretin is > 167 µM (inactive).

For the compound `O=C(NCC1CCCO1)c1cc(-c2ccccc2F)no1` (stereo unspecified), the EC50 in “cells [5]” was 190 µM (active); in assay [6], > 67.5 µM (inactive); in the assay “cells [7]” it was 43.8 µM (active).

Turning to `CC1(C)CC(NC(=O)c2ccc(Cl)c(S(=O)(=O)N(Cc3ccccc3)c3ccccc3)c2)CC(C)(C)N1`, the AC50 is 10.3 µM (active) in [8]; 19.4 µM (active) in [9]; 29.4 µM (active) in assay [11]; 7.96 µM (active) in [12]; 8.14 µM (active) in [13]; 15.7 µM (active) in assay [14]. Also, in assay [10], the CC50 was 12.7 µM (active).

For `c1ccc([C@H]2CN3C(=N2)Sc2ccccc23)cc1`, the EC50 in assay [6] is > 67.1 µM (inactive).

As to `O=[N+]([O-])c1cccnc1N1CCC(c2cc(-c3ccc(Cl)cc3)[nH]n2)CC1`, the EC50 was 33.3 µM (active) on Streptokinase A, 5.14 µM (active) in assay [15] and 9.6 µM (active) with Streptococcus. For the same compound, the IC50 in assay [16] was > 69.5 µM (inactive).

The IC50 is the midpoint of a concentration-inhibition curve. A word on the Ki: it is the equilibrium dissociation constant of an inhibitor or competing ligand from its target. For orientation: EC50 means the midpoint of the concentration-response curve. As usually defined, the AC50 is the concentration at which the activity in the assay is half-maximal.
